Assay results: the supplement of paper PMC10307832

Tests used:
Test in all cases: relative viability (nuclei count vs DMSO), 5 days (fraction); higher = more cells survive
[1] = compound: COc1cc2nc(N3CCCN(C)CC3)nc(NC3CCN(Cc4ccccc4)CC3)c2cc1OC + CCNC(=O)c1noc(-c2cc(C(C)C)c(O)cc2O)c1-c1ccc(CN2CCOCC2)cc1 [Luminespib] (partner 0.01 µM)
In short: (§1)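 Values are medians from duplicate plates. Each reflects relative viability, defined as the nuclei count of treated wells over that of vehicle wells. Lung cancer cell lines in 1536-well plates were pin-tool dosed one day after seeding with one drug alone or with a fixed anchor-drug dose plus five library-drug doses (not always all listed) in √10 steps, then fixed, stained and imaged at 4× after 5 days.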

[2] = compound: COc1cc2nc(N3CCCN(C)CC3)nc(NC3CCN(Cc4ccccc4)CC3)c2cc1OC + Nc1ncn([C@H]2C[C@H](O)[C@@H](CO)O2)c(=O)n1 [Decitabine] (partner 2 µM)
In short: as §1

AZD6482 + Linsitinib = compound: Cc1cc([C@@H](C)Nc2ccccc2C(=O)O)c2nc(N3CCOCC3)cc(=O)n2c1 [AZD6482] + C[C@]1(O)C[C@@H](c2nc(-c3ccc4ccc(-c5ccccc5)nc4c3)c3c(N)nccn32)C1 [Linsitinib] (partner 1 µM)
In short: as §1

[3] = compound: COc1cc2nc(N3CCCN(C)CC3)nc(NC3CCN(Cc4ccccc4)CC3)c2cc1OC + N=C(N)NC(=N)NCCc1ccccc1 [Phenformin] (partner 250 µM)
In short: as §1

Cell Line	relative viability ([1]; first compound 0.2 µM)	relative viability ([1]; first compound 0.6325 µM)	relative viability ([1]; first compound 2 µM)	relative viability ([1]; first compound 6.325 µM)	relative viability ([2]; first compound 0.2 µM)	relative viability ([2]; first compound 0.6325 µM)	relative viability ([2]; first compound 2 µM)	relative viability ([2]; first compound 6.325 µM)	relative viability (AZD6482 + Linsitinib; first compound 0.08 µM)	relative viability (AZD6482 + Linsitinib; first compound 0.253 µM)	relative viability (AZD6482 + Linsitinib; first compound 0.8 µM)	relative viability (AZD6482 + Linsitinib; first compound 2.53 µM)	relative viability (AZD6482 + Linsitinib; first compound 8 µM)	relative viability ([3]; first compound 0.2 µM)	relative viability ([3]; first compound 0.6325 µM)	relative viability ([3]; first compound 2 µM)	relative viability ([3]; first compound 6.325 µM)
BEN	0.415	0.737	0.264	0.516	0.765	0.743	0.914	0.699	0.884	0.93	0.988	0.717	0.85	0.252	0.251	0.229	0.276
LCLC-103H	0.905	1.08	0.976	1.01	0.74	0.794	0.777	0.701	0.869	0.73	0.72	0.605	0.572	0.36	0.344	0.367	0.36
EKVX	0.829	0.878	0.831	0.888	0.329	0.318	0.343	0.27	0.716	0.6	0.646	0.362	0.544	0.233	0.235	0.233	0.24
LXF-289	0.592	0.651	0.729	0.676	0.396	0.365	0.418	0.393	0.993	1	0.971	0.806	0.781	0.511	0.507	0.527	0.525
ABC-1	0.588	0.52	0.512	0.737	0.969	1.09	0.929	1.19	0.611	0.801	0.81	0.521	0.815	0.223	0.2	0.26	0.319
NCI-H650	0.746	0.628	0.783	0.661	0.323	0.307	0.392	0.279	0.856		0.753	0.362	0.491	0.454	0.459	0.466	0.427
NCI-H2085	0.458	0.393	0.373	0.404	0.53	0.531	0.594	0.559	0.453	0.422	0.327	0.26	0.467	0.776	0.743	0.786	0.641
NCI-H1793	0.18	0.193	0.134	0.154	0.499	0.476	0.465	0.571	0.325	0.503	0.615		0.46	0.372	0.385	0.404	0.364
LC-2-ad	0.961	0.973	1.21	1.06	0.764	0.741	0.734	0.856	0.61	0.48	0.605	0.318	0.511	0.528	0.568	0.644	0.521
COR-L 105	0.948	0.899	1.02	0.469	0.687	0.685	0.648	0.492	0.635	0.779	0.783	0.553	0.603	0.461	0.514	0.472	0.343
NCI-H1355	0.715	0.693	0.734	0.773	0.349	0.343	0.343	0.375	0.472	0.55	0.576	0.526	0.536	0.485	0.46	0.508	0.463
H3255	1.14	0.852	0.878	0.898	0.576	0.626	0.601	0.588	0.919	0.907	0.945	0.602	0.729	0.332	0.372	0.362	0.344
NCI-H1993	0.818	0.719	0.923	0.867	0.566	0.522	0.58	0.568	0.759	0.775			0.654	0.528	0.442	0.528	0.501
NCI-H1734	0.182	0.194	0.183	0.172	0.504	0.469	0.516	0.519	0.666	0.589	0.701	0.384	0.554	0.383	0.383	0.389	0.346
HOP-62	0.907	0.856	0.817	0.952	0.214	0.201	0.198	0.216	1.1	0.836	1.12	0.67	0.841	0.684	0.629	0.721	0.641
LOU-NH91	0.383	0.295	0.359	0.367	0.779	0.845	0.853	0.808	0.782	0.913	0.842	0.598	0.665	0.643	0.803	0.506	0.674
PC-14	0.123	0.242	0.162	0.122	0.193	0.223	0.241	0.0753	0.93	0.966	1.02	0.675	0.736	0.584	0.703	0.527	0.265
